Laboratory results taken from patent US11026381B2, “Method for producing haploid, dihaploid and doubled haploid plants by isolated microspore culture” (Vilmorin & Cie, priority 2015, dated 2021).

How the values were obtained:
globular embryos = assay: Elongation of globular embryos (bilayer culture system); format: cell-based, Cucumis sativus; details: in liquid embryo culture medium
From the text: In one embodiment, the LECM comprises one or more HDACi and/or one or more polyamines, preferably both HDACi and polyamine. The HDACi and/or the polyamine can be selected from the above lists, and can be present in any of the aforementioned quantities, in the LECM. In certain embodiments, the LECM further comprises plant growth regulators, in particular selected from auxins, cytokinins, gibberellins, abscisic acid, and mixtures thereof. In a preferred embodiment, the LECM comprises abscisic acid, in an amount effective to enable the development of the embryos. In particular, the LECM comprises from 0.5 to 5 ppm abscisic acid, still preferably from 1 to 2 ppm abscisic acid.
Globular embryos are visible after 20 to 40 days of culture in MEDM medium. To obtain elongated embryos, the inventors have used a bilayer culture system on a rotary shaker at 50-70 rpm in the dark for about 30 day, which has enabled the elongation of the embryos (FIG. 2E to 2G). The bilayer culture system is made of two layers, one lower solid medium made of MEEM with activated charcoal and solidified with 7 g/L agar (see Table 7) and one upper liquid medium, still made of MEDM supplemented with 1-2 ppm abscisic acid and containing the embryos to be elongated.

isolated microspores = assay: Test of various compounds within the IMC media (all with SAHA 10 μM); format: cell-based, Cucumis sativus; details: in association with SAHA
Experimental: Isolated microspores are obtained according to the method described in Example 2, and cultured. […] All media comprise M404 basal medium and carbohydrates as in the MEIM composition described in Table 7, supplemented with 10 μM SAHA plus various other additional compounds. “Event” represents embryogenic callus or embryos.
The microspore cultures are evaluated for their production of multicellular structures and/or normal embryos.

[1] = tested on: isolated microspores of Cucumis sativus; assay: Isolated microspore culture (IMC) of cucumber with HDACi and/or polyamine: formation and classification of multicellular structures; format: cell-based; details: for Classification of the multicellular structures / Response (% of formation of multicellular structures): no polyamine
Experimental: The solution of microspore is diluted to a concentration of about 30,000-150,000 cells/mL using a haemocytometer to count the microspore density. This is done in a Microspore Embryogenesis Induction Medium (MEIM), which components are described in Table 7. The solution is aliquoted by 4-6 mL into 60 mm×50 mm petri plates and sealed, for a heat shock of 24-72 hour at 30-33° C. in the dark.
The isolated microspores are then cultured in the dark at 22-28° C. for about four to five weeks until globular embryos can be seen by bare eyes.
The MEIM medium complemented with polyamine is referred to as a Microspore embryo development medium (MEDM) which components are described in Table 7.
One will note that the Response % is the percentage of formation of multicellular structures, not the analysis or classification of such structures as normal or abnormal. The last column (classification of the multicellular structures) reflects the observation of the multicellular structures according to criteria which defines whether they are normal or abnormal, i.e. uniformity of the cells, and compactness of the multicellular structures.

CC1=CC(=O)CC(C)(C)[C@@]1(O)/C=C/C(C)=C\C(=O)O [Abscisic acid, abscisic acid]
effect on elongation of the embryos (globular embryos): positive effect

NCCCCN [Putrescine, putrescine]
development of normal embryos from the isolated microspores (isolated microspores): enable the development of normal embryos

O=C(CCCCCCC(=O)Nc1ccccc1)NO [SAHA, suberoylanilide hydroxamic acid]
Classification of the multicellular structures ([1]; cultivar HMX4453, SAHA 10 μM): Abnormal | Response (% of formation of multicellular structures) ([1]; cultivar HMX4453, SAHA 10 μM): 9.6% | Classification of the multicellular structures ([1]; cultivar PI518848, SAHA 5 μM): Abnormal | Response (% of formation of multicellular structures) ([1]; cultivar PI518848, SAHA 5 μM): 13.7% | Classification of the multicellular structures ([1]; cultivar PI518848, SAHA 10 μM): Abnormal | Response (% of formation of multicellular structures) ([1]; cultivar PI518848, SAHA 10 μM): 17.3% | multicellular microspore formations ([1]; isolated microspore cultures with SAHA but without polyamine): more present but are abnormal

CC(/C=C/C(=O)NO)=C\[C@@H](C)C(=O)c1ccc(N(C)C)cc1 [TSA, trichostatin A]
response compared with SAHA ([1]; another HDACi tested in isolated microspore culture): lower response than for the SAHA | Classification of the multicellular structures ([1]; cultivar PI518848, TSA 0.5 μM): Abnormal | Response (% of formation of multicellular structures) ([1]; cultivar PI518848, TSA 0.5 μM): 4.3%
